Experimental data reported in patent US20030131363A1, “Heme-regulated eukaryotic initiation factor 2 alpha kinase knockout mice and methods for use” (Massachusetts Institute of Technology, priority 2001, published 2003).

Key:
[1] = tested on: Wt mice; assay: Survival in phenylhydrazine-induced hemolysis, Wt mice; conditions: Wt mice with iron-deficiency, after two injections, 50 mg/Kg
Protocol: (§1) States of iron deficiency have been and remain very common in humans. Thus, exposure to situations that render RBCs more fragile may be often concurrent with iron-deficiency, such as in thalassemias, sickle cell disease, malaria and other infections, extreme climatic conditions, ingestion of natural toxins, heavy metals or drugs. […] Both Wt and HRI−/− mice were injected with phenylhydrazine at the dosages as indicated at Days 0, 1 and 3. The mice were observed daily. […] Six mice of each genotype were used for each dosage. […] The standard phenylhydrazine regime employs three injections of phenylhydrazine on days 0, 1 and 3.

[2] = tested on: HRI−/− mice; assay: Survival in phenylhydrazine-induced hemolysis, HRI−/− mice; conditions: iron-deficient HRI−/− mice, after two injections, 50 mg/Kg
Protocol: as §1

[3] = tested on: HRI +/+ reticulocytes; assay: [35S]-methionine incorporation / protein (globin) synthesis in isolated intact reticulocytes, HRI +/+; format: cell-based, mouse
Protocol: (§2) Mice were injected with phenylhydrazine at 40 mg/kg on days 0, 1 and 3 to induce hemolysis, and the subsequent erythropoiesis and release of reticulocytes into the blood stream. Blood samples were collected by heart puncture on day 7 when the reticulocyte counts were 85-95%. Reticulocytes were washed twice with ice-cold phosphate-buffered saline supplemented with 5 mM glucose. For protein synthesis assays, reticulocytes were resuspended in DMEM (2×10^8 cells/ml) with 1/10 concentration of methionine plus 2% dialyzed fetal bovine serum and preincubated for 30 min at 37_C for recovery. […] Incorporation of the [^35S]-methionine in the globin chains and other proteins was analyzed by 15% SDS-PAGE, and subsequent transfer to nitrocellulose membranes. Protein synthesis in reticulocytes was quantitated by scintillation counting of the nitrocellulose strips containing globin chains. Phosphorylation of HRI and eIF2a in isolated reticulocytes were analyzed by western blot analysis following 7.5% and 12% SDS-PAGE respectively. […]
(§3) HRI−/− mice are viable and fertile without gross morphological abnormalities. […] The IF2Alpha kinase activity of HRI in reticulocyte lysates was determined using in vitro protein kinase assays. The extent of the eIF2a phosphorylation was determined by western-blot analysis using antibody specific to the phosphorylated eIF2a. […]

[4] = tested on: HRI−/− reticulocytes; assay: [35S]-methionine incorporation / protein (globin) synthesis in isolated intact reticulocytes, HRI−/−; format: cell-based, mouse
Protocol: as §2, §3

[5] = molecular target: T1, endogenous eIF2 of mouse reticulocyte lysates (alpha subunit as substrate), Q6ZWX6
T1 chain: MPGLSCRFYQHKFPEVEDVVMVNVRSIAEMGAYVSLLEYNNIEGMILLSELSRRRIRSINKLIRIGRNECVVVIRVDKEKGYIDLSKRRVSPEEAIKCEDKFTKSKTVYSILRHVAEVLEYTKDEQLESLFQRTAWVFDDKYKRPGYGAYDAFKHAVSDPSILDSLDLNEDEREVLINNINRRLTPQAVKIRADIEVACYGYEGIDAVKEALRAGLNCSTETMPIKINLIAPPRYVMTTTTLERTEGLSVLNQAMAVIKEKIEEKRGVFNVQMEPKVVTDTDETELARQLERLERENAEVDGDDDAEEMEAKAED

[6] = molecular target: purified rabbit reticulocyte eIF-2 (alpha subunit as substrate), P83268
Chain of purified rabbit reticulocyte eIF-2 (alpha subunit as substrate), P83268 (P83268 whole entry, looked up, tested part not stated): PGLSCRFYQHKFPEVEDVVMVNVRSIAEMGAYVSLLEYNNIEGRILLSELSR

[7] = molecular target: purified wheat germ eIF-2Alpha

`NNc1ccccc1` [phenylhydrazine] gave a Survival [1] of roughly 100% and a Mice died [2] of 90%.

For hemin, the “Incorporation of [35S]-methionine into globins” value ([3]; +/+ reticulocytes, pre-treatment with 40_M hemin for 30 min prior to [35S]-methionine) was 208 % of control and the “Protein synthesis, effect of addition of hemin” value ([4]; hemin added) was “not affected”.

In the case of `C[C@@H]1C[C@@H]([C@H](O)CC2CC(=O)NC(=O)C2)C(=O)[C@@H](C)C1` [cycloheximide], the “Protein synthesis, inhibition” value ([3]; Wt reticulocytes, cycloheximide (2 ìM per method)) is reported as “inhibited equally well” and the “Protein synthesis, inhibition” value ([4]; cycloheximide (2 ìM per method)) is reported as “inhibited equally well”.

B1: mouse HRI protein (heme-regulated eIF2 alpha kinase) in reticulocyte lysates (protein)
chain: MLGGSSVDGERDTDDDAAGAVAAPPAIDFPAEVSDPKYDESDVPAELQVLKEPLQQPTFPFLVANQLLLVSLLEHLSHVHEPNPLHSKQVFKLLCQTFIKMGLLSSFTCSDEFSSLRLHHNRAITHLMRSAKERVRQDPCQDNSYMQKIRSREIAFEAQTSRYLNEFEELAILGKGGYGRVYKVRNKLDGQHYAIKKILIKSATKTDCMKVLREVKVLAGLQHPNIVGYHTAWIEHVHVVQPQDRVPIQLPSLEVLSEQEGDRDQGGVKDNESSSSIVFAELTPEKEKPFGESEVKNENNNLVSYTANLVVRNSSESESSIELQEDGLTDLSVRPVVRHQLPLGHSSELEGNFTSTDESSEGNLNLLGQTEVRYHLMLHIQMQLCELSLWDWITERNKRSREYVDEAACPYVMASVATKIFQELVEGVFYIHNMGIVHRDLKPRNIFLHGPDQQVKIGDFGLACADIIQNADWTNRNGKGTRTHTSRVGTCLYASPEQLEGSQYDAKSDMYSLGVILLELFQPFGTEMERATVLTGVRTGRIPESLSKRCPVQAKYIQLLTGRNVSQRPSALQLLQSELFQTTGNVNLTLQMKIIEQEKEIEELKKQLSLLSQDRGLKR
In the case of B1, the “in vitro eIF2 Alpha phosphorylation in reticulocyte lysates with endogenous eIF2 as substrate” value [5] is reported as “In vitro eIF2 Alpha phosphorylation occurred in reticulocyte lysates from +/+ mice ... little eIF2 phosphorylation was detected in the reticulocyte lysates of HRI-/- mice”.

B2: 90 kDa polypeptide expressed from rabbit HRI cDNA (heme-regulated eIF-2 alpha kinase), in vitro translation product (protein)
chain: MLGGSAGTRGGEAEGDGAGAVGAVAPPPAIDFPAEVSDPKYDESDVPAELQVLKEPLQQPAFPFAVANQLLLVSLLEHLSHVHEPNPLRSRQVFKLLCQTFIKMGLLSSFTCSDEFSSLRLHHNRAITHLMRSARERVRQDPCADNSHIQKIRSREVALEAQTSRYLNEFEELSILGKGGYGRVYKVRNKLDGQYYAIKKILIKGATKTDCMKVLREVKVLAGLQHPNIVGYHTAWIEHVHVHVQADRVPIQLPSLEVLSDQEEDRDQYGVKNDASSSSSIIFAEFSPEKEKSSDECAVESQNNKLVNYTTNLVVRDTGEFESSTERQENGSIVERQLLFGHNSDVEEDFTSAEESSEEDLSALRHTEVQYHLMLHIQMQLCELSLWDWIAERNRRSRECVDESACPYVMVSVATKIFQELVEGVFYIHNMGIVHRDLKPRNIFLHGPDQQVKIGDFGLACADIIQKNAARTSRNGERAPTHTSRVGTCLYASPEQLEGSEYDAKSDMYSVGVILLELFQPFGTEMERAEVLTGVRAGRIPDSLSKRCPAQAKYVQLLTRRNASQRPSALQLLQSELFQNSAHVNLTLQMKIIEQEREIEELKKQLSLLSQARGVRSDRRDGELPA
For B2, the “eIF-2Alpha kinase activity (32P protein kinase assay, SDS-gel electrophoresis)” value [6] was “translational products of HRI 2A and HRI 2B mRNAs have enhanced eIF-2Alpha kinase activity as compared to the control in the absence of added mRNA”.

B3: purified reticulocyte HRI (protein)
chain: MLGGSAGTRGGEAEGDGAGAVGAVAPPPAIDFPAEVSDPKYDESDVPAELQVLKEPLQQPAFPFAVANQLLLVSLLEHLSHVHEPNPLRSRQVFKLLCQTFIKMGLLSSFTCSDEFSSLRLHHNRAITHLMRSARERVRQDPCADNSHIQKIRSREVALEAQTSRYLNEFEELSILGKGGYGRVYKVRNKLDGQYYAIKKILIKGATKTDCMKVLREVKVLAGLQHPNIVGYHTAWIEHVHVHVQADRVPIQLPSLEVLSDQEEDRDQYGVKNDASSSSSIIFAEFSPEKEKSSDECAVESQNNKLVNYTTNLVVRDTGEFESSTERQENGSIVERQLLFGHNSDVEEDFTSAEESSEEDLSALRHTEVQYHLMLHIQMQLCELSLWDWIAERNRRSRECVDESACPYVMVSVATKIFQELVEGVFYIHNMGIVHRDLKPRNIFLHGPDQQVKIGDFGLACADIIQKNAARTSRNGERAPTHTSRVGTCLYASPEQLEGSEYDAKSDMYSVGVILLELFQPFGTEMERAEVLTGVRAGRIPDSLSKRCPAQAKYVQLLTRRNASQRPSALQLLQSELFQNSAHVNLTLQMKIIEQEREIEELKKQLSLLSQARGVRSDRRDGELPA
In the case of B3, the “phosphorylation of eIF-2Alpha (protein kinase assay)” value [7] is reported as “the purified reticulocyte HRI phosphorylates purified wheat germ eIF-2Alpha very inefficiently”.
